In patent US8563594B2, “S1P3 receptor inhibitors for treating pain” (Allergan, Inc., priority 2007, dated 2013):

Target: S1P1 receptor (Homo sapiens (Human), UniProt P21453)
Experiment: FLIPR assay (Ca2+ response), S1P1 receptor
Assay type: cell-based
Details: receptor activity at highest dose tested (10 μM) relative to 5 nM sphingosine-1-phosphate

S1P1 receptor, sequence (P21453 whole entry): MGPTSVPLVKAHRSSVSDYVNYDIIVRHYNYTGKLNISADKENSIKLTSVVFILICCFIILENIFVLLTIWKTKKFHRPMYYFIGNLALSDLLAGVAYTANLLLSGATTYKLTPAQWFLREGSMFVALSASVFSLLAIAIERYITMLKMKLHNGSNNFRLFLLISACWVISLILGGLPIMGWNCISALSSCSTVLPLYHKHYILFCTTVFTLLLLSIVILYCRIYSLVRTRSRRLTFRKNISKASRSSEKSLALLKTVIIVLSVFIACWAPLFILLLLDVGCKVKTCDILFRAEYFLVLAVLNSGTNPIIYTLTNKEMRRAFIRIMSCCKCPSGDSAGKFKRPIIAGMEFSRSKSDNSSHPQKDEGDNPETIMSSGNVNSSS

| S1P1 percent efficacy (in parenthesis) [%] | S1P1 percent efficacy (in parenthesis) (selective inhibitor table) [%] | Compound |
| --- | --- | --- |
| 36 |  | Cc1ccc(-c2ccc(CNCCCP(=O)(O)O)nc2-c2ccccc2)cc1 [Compound 147] |
| 57 |  | CCc1ccc(-c2ccc(CNCCCP(=O)(O)O)nc2-c2ccccc2)cc1 [Compound 148] |
| 69 |  | CCCc1ccc(-c2ccc(CNCCCP(=O)(O)O)nc2-c2ccccc2)cc1 [Compound 154] |
|  | 57 | CCc1ccc(-c2ccc(CNCCCP(=O)(O)O)nc2-c2ccccc2)cc1 [drawing 165] |
